From EP0288055B1, “Use of ODC inhibitors, dacarbazine, and interferon, in the treatment of malignant melanoma” (MERRELL DOW PHARMACEUTICALS INC., priority 1987, dated 1988)

System: B16 melanoma
Test: Effect on the growth of B16 melanoma in mice (tumor weight at sacrifice)
Assay type: in vivo
Conditions: for Tumor Weight (g) (Mean ± S.E.): B16 melanoma cells (1 x 10^5 cells/animal) S.C., tumors weighed on day 18, DFMO 2% in drinking water day 1-18, DTIC 6.25 mg/Kg i.p. once daily day 1-15, IFN 1000 units/animal S.C. alternate days day 2-18; for % Inhibition: inhibition of tumor weight vs control on day 18, same dosing as for tumor weight
Description: EFFECT OF A COMBINATION OF α-DIFLUOROMETHYLORNITHINE (DFMO), DACARBAZINE (DTIC) AND α-INTERFERON (IFN) ON THE GROWTH OF B16 MELANOMA IN MICE

Row | SMILES | Tumor Weight (g) (Mean ± S.E.) | % Inhibition [%]
1 | NCCC[C@](N)(C(=O)O)C(F)F [DFMO, α-difluoromethyl ornithine] | 1.02 ± 0.15 | 86.0
2 | CN(C)N=Nc1[nH]cnc1C(N)=O [DTIC, 5-(3,3-Dimethyl-1-triazenyl)-1H-imidazole-4-carboxamide] | 3.2 ± 0.63 | 35.0
